These are literature values, as cited in patent US20090012085A1, “DOSAGE FORMS AND METHODS OF TREATMENT USING A TYROSINE KINASE INHIBITOR” (priority 2005, published 2009).

This series relates to solid and hematopoietic cancer xenograft models. To be noted: diverse preclinical solid and hematopoietic cancer xenograft models; cited from earlier work.

Consider `Cc1[nH]c(/C=C2\C(=O)Nc3ccc(F)cc32)c(C)c1C(=O)NC[C@H](O)CN1CCOCC1` [compound 1, 5-[(Z)-(5-fluoro-2-oxo-1,2-dihydro-3H-indol-3-ylidene)methyl]-N-[(2S)-2-hydroxy-3-morpholin-4-ylpropyl]-2,4-dimethyl-1H-pyrrole-3-carboxamide], for which the anti-tumor activity entry is recorded as “has anti-tumor activity”.
